In US11932874B2, “Method for culturing mesenchymal stem cells using gamma-irradiated serum” (R Bio CO., Ltd., priority 2018, dated 2024):

Tests used:
Type in all cases: cell-based
[1] = tested on: human adipose tissue-derived stem cells; test: Culture of stem cells in AMSC+ medium with 25 kGy gamma-irradiated FBS and vitamin C post-treatment (Example 2): cell number, doubling time; settings: for Cell No. / Doubling time: Ad-MSC (P4)
Method: Fetal bovine serum (FBS) was irradiated with 25 kGy of gamma radiation (Soyagreentec Co., Ltd.), thereby preparing gamma-irradiated FBS. Then, the human adipose tissue-derived stem cells at passage 3, isolated in Example 1, were thawed and inoculated into T75 flasks at a concentration of 0.5×10^6 cells/T75 flask, and the inoculated cells were cultured with AMSC+ culture medium (R-Bio Co., Ltd.) containing the prepared gamma-irradiated FBS at a concentration of 5% in a CO2 incubator at 37° C. for 2 days. After 2 days of culture, the medium was removed and replaced with either AMSC+ culture medium containing 5% gamma-irradiated FBS (a negative control group) or medium obtained by adding vitamin C (ascorbic acid; L-Ascorbic Acid 2-phosphate) to AMSC+ culture medium containing 5% gamma-irradiated FBS (a vitamin C post-treatment test group). Vitamin C was added to the culture medium at concentrations of 0.025, 0.05, 0.1 and 1%. The AMSC+ culture medium (R-Bio Co., Ltd.) is a 1:1 mixture of KSFM-P medium (containing Defined Keratinocyte-SFM, 0.2 mM L-ascorbic acid 2-phosphate, 5 μg/ml insulin, 2 mM N-acetyl-L-cysteine, 0.09 mM calcium chloride, 74 ng/ml hydrocortisone and 5% FBS) and DMEM medium. After 4 days of culture, the cell proliferation rate and doubling time of the cells were examined. The viability of the cells was examined with a microscope and a hemocytometer, and the doubling time was calculated using the following equation: Doubling Time=duration×log(2)/log(final concentration)−log(initial concentration). [Equation 1] A positive control group was cultured using 5% normal FBS (which was not irradiated with gamma radiation) and AMSC+ culture medium in the same manner as the negative control group and the test group.

[2] = tested on: human adipose tissue-derived stem cells; test: Adhesion of stem cells cultured in 25 kGy gamma-irradiated FBS: time at which stem cell density reached 90% (Example 4); settings: 25 kGy FBS, passage 0 cells
Method: In the same manner as described in Example 3 above, fetal bovine serum (FBS) was irradiated with 25 kGy of gamma radiation, thereby preparing gamma-irradiated FBS. Vitamin C (ascorbic acid; L-Ascorbic Acid 2-phosphate) was added to the FBS which was then irradiated with 25 kGy of gamma irradiation, thereby preparing gamma-irradiated FBS pretreated with vitamin C. The vitamin C was added to the FBS at a concentration of 1%. Then, the human adipose tissue-derived stem cells at passage 0, isolated in Example 1, were thawed and inoculated into T25 flasks at a concentration of 1.7×10^3 cells/T25 flask, and the inoculated cells were cultured with AMSC+ culture medium (R-Bio Co., Ltd.) containing the prepared gamma-irradiated FBS or gamma-irradiated FBS pretreated with vitamin C at a concentration of 5% in a CO2 incubator at 37° C. for 2 days. After 2 days of culture, the medium was removed and replaced with AMSC+ culture medium containing 5% gamma-irradiated FBS (a negative control group), medium obtained by adding vitamin C to AMSC+ culture medium containing 5% gamma-irradiated FBS (a vitamin C post-treatment test group), or AMSC+ culture medium containing 5% gamma-irradiated FBS pretreated with vitamin C (a vitamin C pre-treatment test group). Vitamin C was added to the culture medium or FBS at a concentration of 1%. A positive control group was also prepared as described in Examples 2 and 3 above. For each control group and the test group, examination was performed of the time at which the density of the stem cells reached 90% so that these cells could be sub-cultured.

[3] = tested on: human adipose tissue-derived stem cells; test: Differentiation into osteocytes, alizarin red S staining (Example 7); settings: 30 KGy gamma radiation, post-treated with 1% vitamin C, passage 4
Method: (§1) For the positive control group and vitamin C post-treatment test group of Example 6, the purity and characteristics of the stem cells at passage 4 were examined. The purity of the stem cells was examined by analyzing the expression of CD markers using FACS (FIG. 12 and Table 10), and the characteristics of the stem cells were examined by analyzing differentiation into adipocytes, osteocytes and chondrocytes (FIGS. 13 to 15). Differentiation into adipocytes was analyzed by oil red 0 staining according to the Sigma-Aldrich protocol, and differentiation into osteocytes was analyzed by alizarin red S staining according to the Lifeline Cell Tech's protocol, and differentiation into chondrocytes was analyzed by TSP2 ELISA.

[4] = tested on: human adipose tissue-derived stem cells; test: Differentiation into chondrocytes, TSP2 ELISA (Example 7); settings: 30 KGy gamma radiation, post-treated with 1% vitamin C, passage 4
Method: as §1

[5] = tested on: human adipose tissue-derived stem cells; test: Culture of stem cells using 25 kGy gamma-irradiated FBS with vitamin C pre- or post-treatment (Example 3): cell number, doubling time; settings: for Cell No. / Doubling time: Ad-MSC (P4), 4 days of culture
Method: After 4 days of culture, the cell proliferation rate and doubling time of the cells were examined. The viability of the cells was examined with a microscope and a hemocytometer, and the doubling time was calculated using the following equation: Doubling Time=duration×log(2)/log(final concentration)−log(initial concentration). [Equation 1] Fetal bovine serum (FBS) was irradiated with 25 kGy of gamma radiation, thereby preparing gamma-irradiated FBS. Vitamin C (ascorbic acid; L-Ascorbic Acid 2-phosphate) was added to the FBS which was then irradiated with 25 kGy of gamma irradiation, thereby preparing gamma-irradiated FBS pretreated with vitamin C. The vitamin C was added to the FBS at a concentration of 0.1% or 1%. Then, the human adipose tissue-derived stem cells at passage 3, isolated in Example 1, were thawed and inoculated into T75 flasks at a concentration of 0.5×10^6 cells/T75 flask, and the inoculated cells were cultured with AMSC+ culture medium (R-Bio Co., Ltd.) containing the prepared gamma-irradiated FBS or gamma-irradiated FBS pretreated with vitamin C at a concentration of 5% in a CO2 incubator at 37° C. for 2 days. After 2 days of culture, the medium was removed and replaced with AMSC+ culture medium containing 5% gamma-irradiated FBS (a negative control group), medium obtained by adding vitamin C to AMSC+ culture medium containing 5% gamma-irradiated FBS (a vitamin C post-treatment test group), or AMSC+ culture medium containing 5% gamma-irradiated FBS pretreated with vitamin C (a vitamin C pre-treatment test group). Vitamin C was added to the culture medium or FBS at a concentration of 0.1 or 1%. After 4 days of culture, the cell proliferation rate and doubling time of the cells were examined in the same manner as described in Example 2 above. A positive control group was also prepared as described in Example 2 above.

[6] = 25 KGy FBS + 0.025% AA2P added to medium, 4 days of culture
[7] = 25 KGy FBS + 0.05% AA2P added to medium, 4 days of culture
[8] = 25 KGy FBS + 0.1% AA2P added to medium, 4 days of culture
[9] = 25 KGy FBS + 1% AA2P added to medium, 4 days of culture
[10] = vitamin C post-treatment, 25 kGy FBS, 4 days of culture
[11] = 0.1% AA2P post-treatment + 25 KGy
[12] = 0.1% AA2P pre-treatment + 25 KGy
[13] = 1% AA2P post-treatment + 25 KGy

O=C1O[C@H]([C@@H](O)CO)C(O)=C1OP(=O)(O)O [AA2P, L-Ascorbic Acid 2-phosphate]
Cell No. [1, 6]: 10.035 ×10^6 cells
Doubling time [1, 6]: 31.33 h
Cell No. [1, 7]: 9.5 ×10^6 cells
Doubling time [1, 7]: 32.16 h
Cell No. [1, 8]: 10.6 ×10^6 cells
Doubling time [1, 8]: 30.54 h
Cell No. [1, 9]: 12 ×10^6 cells
Doubling time [1, 9]: 28.9 h
cell number versus negative control group [1, 10]: increased compared to the negative control group
doubling time versus negative control group [1, 10]: decreased compared to the negative control group
microscope observation of stem cells ([1]; vitamin C post-treatment, 25 kGy FBS, days 0, 1 and 4 (FIG. 1)): levels similar to those of the positive control group
Density (90%): day of culture on which stem cell density reached 90% ([2]; Post-treatment with 1% Vit. C): Day 10
Density (90%): day of culture on which stem cell density reached 90% ([2]; Post-treatment with 1% Vit. C, listed as vitamin C): 13 days
Density (90%): day of culture on which stem cell density reached 90% ([2]; Pre-treatment with 1% Vit. C): Day 13
Density (90%): day of culture on which stem cell density reached 90% ([2]; Pre-treatment with 1% Vit. C, listed as vitamin C): 10 days
differentiation into osteocytes versus positive control group [3]: did not differ from those of the positive control group
differentiation into chondrocytes versus positive control group [4]: did not differ from those of the positive control group
Cell No. [5, 11]: 10.6 ×10^6 cells
Doubling time [5, 11]: 21 h
Cell No. [5, 12]: 10.2 ×10^6 cells
Doubling time [5, 12]: 21 h
Cell No. [5, 13]: 14.0 ×10^6 cells
Doubling time [5, 13]: 19 h
Cell No. ([5]; 1% AA2P pre-treatment + 25 KGy): 10.0 ×10^6 cells
Doubling time ([5]; 1% AA2P pre-treatment + 25 KGy): 21 h
cell number and doubling time versus positive control group ([5]; vitamin C post-treatment and pre-treatment test groups, 25 kGy FBS, 4 days): increased to the levels of the positive control group
microscope observation of stem cells ([5]; vitamin C post-treatment and pre-treatment test groups, 25 kGy FBS, day 4 (FIG. 3)): levels similar to those of the positive control group
